Results as given in patent publication US6586461B1, “Prenyl transferase inhibitors” (Wayne State University, priority 1998, dated 2003).

Assays:
H-Ras-F cells [1] = experiment: Incorporation of radiolabel into proteins of H-Ras-F cells; type: cell-based; conditions: 5 μM, 18 h, lovastatin-treated H-Ras-F cells
Protocol: H-Ras-F cells were treated with 25 μM lovastatin for 24 h after which the following were added directly to four samples of the cell media: (1) control-untreated, (2) 3-vinyl-1-[^3H]-farnesol (5 μM, 1.34 μCi/ml), (3) 1-[^3H]-FPP (3 μM, 50 μCi/ml; Amersham), and (4) 1-[^3H]-farnesol (3 μM, 50 μCi/ml; American Radiolabeled Chemicals). […] After drying, the membranes were sprayed with En^3Hance (Amersham) and exposed to film (Hyperfilm MP, Amersham) for a period of time prior to developing (4 days for 1-[^3H]-FPP and 1-[^3H]-farnesol) and 28 days for 3-vinyl-1-[^3H]-farnesol). The exposed films are shown on FIG. 8 where the control and radioactive bands are designated as indicated above.

[2] = test system: NIH 3T3 fibroblasts transfected with H-Ras(61 L) [H-Ras-F]; experiment: Soft agar anchorage-independent growth, H-Ras-F cells; type: cell-based; conditions: soft agar, 2 weeks; read-out: Mean IC50 (±S.E.) H-Ras-F
Protocol: (§1) Presumably, the non-polar alcohols pass through the cell membrane and are then diphosphorylated by an as yet uncharacterized kinase to FPP or GGPP.
(§2) The 3-substituted analogs were evaluated as inhibitors of the growth of ras-transformed cells by comparing their relative degree of activity against an isogenic panel of transformed cell lines, comprised of NIH 3T3 fibroblasts transfected with either H-Ras(61 L) [H-Ras-F], H-Ras(61 L)CVLL [H-Ras-GG], or a transforming form of c-raf [Raf]. The H-Ras-F, H-Ras-GG, and raf transformed NIH3T3 cell lines have been previously described in Cox, et al., Molecular and Cellular Biology, Vol. 12, No. 6, pages 2606-2615 (1992). The cells were grown prior to plating in Dulbecco's modified Eagle medium supplemented with 10% calf serum and 1% antibiotic/antimycotic at 37° C. and 10% CO2. Experiments were carried out in 6-well dishes in a two layer agar system (0.6% bottom layer and 0.3% top layer). Cells were incorporated into the top layer along with varying concentrations of the compound prepared in ethanol. Compound addition occurred only at the time the cells were seeded. Subsequent incubation was at 37° C. with 10% CO2 for 2 weeks. Colonies were stained with 0.5 ml/well of 1 mg/ml p-iodonitrotetrazolium violet (Sigma) for 24 hours prior to quantitation by image analysis.

[3] = test system: H-Ras-GG in H-Ras-GG cells; experiment: Subcellular fractionation / Western blot of Ras in lovastatin-treated H-Ras-GG cells; type: cell-based
Protocol: H-Ras-F (A) or H-Ras-GG (B) cells were treated with 25 μM lovastatin for 24 h after which the indicated FPP or GGPP analogs (resuspended in media) were added directly to the cell media. Following an additional 24 h incubation period, the cells were harvested, lysed and the membranes (M) separated from the cytosol (C). After solubilization of the membrane fraction, Ras protein was immunoprecipitated from both the membrane and cytosolic fractions by the addition of the Y13-259 antibody (OP04 from Oncogene Science). The presence of Ras protein in each fraction was analyzed by Western transfer techniques. Incubation with the primary antibody (pan-ras Ab-2 from Oncogene Science) and an anti-mouse HRP conjugate secondary antibody (Amersham) was employed for detection of the ras protein. Blots were developed using Enhanced Chemiluminescence techniques (Amersham). The technique is described in detail by Scholten, et al., Bioorg. Med. Chem., Vol. 4, pages 1537-1543 (1992).
The selectivity and mechanism of the observed cell growth inhibition was further probed by studying the effects of the 3-vinyl and 3-allyl GGPP analogs on the subcellular distribution of the geranylgeranylated protein variant in H-Ras-GG cells in a manner similar to that described for 3-vFPP and 3-alFPP. The Western blot is shown on FIG. 8. With H-Ras-GG cells, as with H-Ras-F cells, blockage of the mevalonate pathway results in a shift in the subcellular location of the Ras protein from the membrane to the cytosol.

[4] = test system: NIH 3T3 fibroblasts transfected with a transforming form of c-raf [Raf]; experiment: Soft agar anchorage-independent growth, Raf cells; type: cell-based; conditions: 2 weeks, mean of two tests
Protocol: as §1, §2

[5] = test system: NIH 3T3 fibroblasts transfected with H-Ras(61 L)CVLL [H-Ras-GG]; experiment: Soft agar anchorage-independent growth, H-Ras-GG cells; type: cell-based; conditions: 2 weeks, read-out: Mean IC50 (±S.E.) H-Ras-GG
Protocol: as §1, §2

[6] = test system: HPAC (human pancreatic adenocarcinoma cells); experiment: Proliferation of HPAC cells, Trypan Blue exclusion; type: cell-based; conditions: 48 hours
Protocol: The malignant human cell line HPAC (human pancreatic adenocarcinoma cells) was used in this study. The cells were seeded at a concentration of 2×10^5/ml in 24 well culture plate (Costar, Cambridge, Mass). […] Varying amounts of the stock solutions were then used to treat the HPAC cells. The final concentration of the farnesol analogs in the culture plate wells ranged from 0 nM (ethanol-treated control) to 500 nM. The plate was then incubated at 37° C. under a 5% CO2-humidified atmosphere for 48 hours. The total viable cells from each well were determined by Trypan Blue (0.4%) exclusion (Gibco, N.Y.) followed by cell counting.

H-Ras-F cells [7] = experiment: Proliferation of H-Ras-F cells (control experiments); type: cell-based
recombinant mGGTase I = recombinant mGGTase I (Homo sapiens, UniProt P49354+P53609); experiment: GGTase I scintillation proximity assay; type: biochemical; conditions: tritiated GGPP
Protocol: (§3) The method is described in detail in Yokama, et al., J. Biol. Chem., Vol. 272, No. 7, pages 3944-3952 (February 1997). The FTase, tritiated FPP, and the peptide were incubated at 37° C. for 30 minutes in a buffer. After incubation, a stop reagent and streptavidin beads (Amersham) were added. The radioactive product was counted on a Wallac Microbeta 1450 scintillation counter. The kinetic fits were derived from a nonlinear least squares computer fit of the data. The Ki values were determined using the same assay system with varying concentrations of tritiated FPP.
GGTase I values were determined in a similar manner using recombinant mGGTase I, tritiated GGPP, and the peptide Biotin-Aha-Thr-Lys-Cys-Val-Ile-Leu-OH.

H-Ras-F cells [8] = experiment: Cell morphology of lovastatin-treated H-Ras-F cells; type: cell-based; conditions: 25 μM lovastatin 24 h, then analog 24 h
Protocol: (§4) It has been well established that levels of lovastatin that completely block the mevalonate pathway result in cell cycle blockade, significant cytotoxicity, and a sharp change in cell appearance to a rounded morphology. The effects of lovastatin on the cell morphology of H-Ras-F and H-Ras-GG cells treated with FPP, GGPP, 3-vFPP, 3-vGGPP, 3-alFPP, and 3-alGGPP were photographed and the results are shown on FIG. 9 (H-Ras-F) and 8 (H-Ras-GG), respectively. The H-Ras-F and H-Ras-GG cells were grown in six-well plates to 70-80% confluence. After treating the cells with lovastatin (25 μM) for 24 hour, the indicated FPP or GGPP analogs (re-suspended in media) were added directly to the cell media. Photographs were taken after an additional 24 hour incubation period.

H-Ras-GG cells = experiment: Cell morphology of lovastatin-treated H-Ras-GG cells; type: cell-based; conditions: 25 μM lovastatin 24 h, then analog 24 h
Protocol: as §4

[9] = target: recombinant mFTase (affinity purified rat FPTase) (Rattus norvegicus, UniProt Q02293+Q04631); experiment: FTase scintillation proximity assay; type: biochemical; conditions: for IC50: recombinant mFTase, tritiated FPP 0.12 μM, peptide 0.1 μM; for FTase/GGTase: selectivity mFTase against mGGTase I
Protocol: as §3

[3H]C(O)C=C(C=C)CCC=C(C)CCC=C(C)C (centres unmarked) [3-vinyl-1-[^3H]-farnesol]
Radiolabel incorporation into protein bands (H-Ras-F cells [1]): the radiolabel migrates with the same protein bands as seen when cells are treated with tritiated farnesol and FPP

C=C/C(=C\CO)CC/C=C(\C)CC/C=C(\C)CCC=C(C)C [3-vinyl Geranylgeraniol, 3-Vinyl-7,11,15-trimethylhexadeca-2(Z),6(E),10(E),14-tetraen-1-ol]
IC50 [2]: 18 ± 4.1 µM
Protein geranylgeranylation in cells ([3]; summary statement): restores protein geranylgeranylation in cells
IC50 [4]: 5.6 µM
IC50 [5]: 13.9 ± 2.3 µM

CC(C)=CCCC(C)=CCCC(C)=CCO [farnesol, reference compound]
Effect on HPAC cells at 500 nM [6]: no effect
Effect on proliferation of H-Ras-F cells (H-Ras-F cells [7]; 30 μM, data not shown): little effect

3-vinyl geranylgeranyl diphosphate [Compound 3-vGGPP]
IC50 (recombinant mGGTase I): 3.05 µM
Membrane localization of H-Ras-GG ([3]; H-Ras-GG cells, lovastatin-treated): resulted in restoration of the membrane localization of H-Ras-GG
Reversal of rounded morphology of lovastatin-treated H-Ras-F cells (H-Ras-F cells [8]): restore the flattened morphology of cells
Restoration of flattened morphology of lovastatin-treated H-Ras-GG cells (H-Ras-GG cells): completely restore
IC50 [9]: 0.715 µM
FTase/GGTase [9]: 4.3

C=CC/C(=C\COP(=O)(O)OP(=O)(O)O)CC/C=C(\C)CC/C=C(\C)CCC=C(C)C [Compound 3-alGGPP, 3-Allyl-7,11,15-trimethylhexadeca-2(Z),6(E),10(E),14-tetraene diphosphate]
IC50 (recombinant mGGTase I): 3.38 µM
Reversal of rounded morphology of lovastatin-treated H-Ras-F cells (H-Ras-F cells [8]): reversion in morphology
Restoration of flattened morphology of lovastatin-treated H-Ras-GG cells (H-Ras-GG cells): partially restore
IC50 [9]: 0.453 µM
FTase/GGTase [9]: 7.5

3-Vinyl-7,11-dimethyldodeca-2(Z),6(E),10-trien-1-ol [3-vinyl Farnesol]
Effect on HPAC cells at 100 nM ([6]; 100 nM): cytostasis
Viable HPAC cell count at 100 nM ([6]; 100 nM, seeded 2×10^5/ml, control well 2.2×10^6 cells): ~2×10^5 /well
Effect on HPAC cells at 500 nM ([6]; listed as 3-Vinylfarnesol): complete cytotoxicity
Effect on HPAC cells at 500 nM ([6]; listed as 3-vinylfarnesol): potently cytotoxic
Effect on growth of H-Ras-F cells (H-Ras-F cells [7]; concentration not given): complete inhibition of growth
